Here are results for one molecule from patent publication EP4653007A1, “NOVEL MIXTURE OF ACTIVE INGREDIENTS, COMPOSITIONS CONTAINING THEM, AND THEIR USE AGAINST ALLERGY AND/OR INFLAMMATION” (Global Pharmacies Partner S.R.L. in Forma Abbreviata G.P.P. …, priority 2024, dated 2025).

The structures appear in SMILES notation.

The subject of one test is RBL-2H3 cells. The test can be described thus: evaluation of degranulation (β-hexosaminidase release) in sensitized/stimulated RBL-2H3 cells. It is filed as cell-based, rat. The settings on record: positive control 20 µM. On the procedure:
To evaluate the efficacy of a mixture M according to the invention, the following in vitro study was conducted. The antiallergic activity of the tested sample of mixture M was evaluated by measuring its ability to prevent degranulation processes in a rat leukemia cell line (RBL-2H3), widely used as a model simulating mast cells in immunological and allergological studies.
(§1) The RBL-2H3 cells were first sensitized and then stimulated to induce degranulation.
The test was conducted on RBL-2H3 cells grown in DMEM (Dulbecco's modified Eagle medium) containing 10% fetal bovine serum (FBS) and 1% antibiotics (penicillin and streptomycin) and incubated in standard culture conditions (37°C, 5% CO2). RBL-2H3 cells are widely used in allergy and immunology research, as, like mast cells, they express FCεRI and, following cross-linking between IgE bound to FCεRI and allergens, they undergo degranulation. […]
The medium was then recovered and separated from the cells and incubated with 4-nitrophenyl-N-acetyl-β-D-glucosamide. The reaction was stopped with carbonate buffer and the absorbance was measured by spectrophotometric reading at 405 nm. Degranulation was calculated as the percentage of β-hexosaminidase relative to non-sensitized (NS) cells as follows: Degranulation (%) = (ODX)/(ODNS)⋅100 [formula] […]

The test system of the next test is TNFα. The test can be described thus: TNFα dosage by ELISA in supernatant of sensitized/stimulated RBL-2H3 cells. The settings on record: positive control 20 µM. The test is classed as cell-based, rat. On the procedure:
The anti-inflammatory action was instead evaluated, always in the same cell line, by measuring the ability of the sample to inhibit the release of tumor necrosis factor alpha (TNFα).
as §1
The test was conducted on RBL-2H3 cells grown in DMEM (Dulbecco's modified Eagle medium) containing 10% fetal bovine serum (FBS) and 1% antibiotics (penicillin and streptomycin) and incubated in standard culture conditions (37°C, 5% CO2). RBL-2H3 cells are widely used in allergy and immunology research, as, like mast cells, they express FCεRI and, following cross-linking between IgE bound to FCεRI and allergens, they undergo degranulation. In this way, therefore, they simulate the behavior of mast cells and basophils in their response to an immunological stimulus.
The supernatant recovered from the cells was also used for the dosage of TNFα performed by ELISA (Enzyme-Linked Immunosorbent Assay), a very widespread biochemical technique used for the quantification of proteins and peptides. In an ELISA assay, a specific […] for TNFα is immobilized on a solid surface (the bottom of a well) to which the assay medium is added. Detection is done by means of a biotinylated secondary antibody and then reacted with streptavidin-HRP. The colorimetric reaction is proportional to the amount of TNFα present. The results are read by spectrophotometer at 450 nm. The values obtained were then interpolated into a standard curve of TNFα.
The absorbance (optical density, OD) measured at 450 nm is directly proportional to the amount of TNFα produced by the tissues. To calculate the concentrations of TNFα, the OD values obtained were interpolated into a standard curve of TNFα. The percentages were calculated with respect to the non-sensitized and non-stimulated cells (NS). The values are expressed as means ± standard deviation. Statistical processing of the data was performed by Student's t-test. Values of p<0.05 are considered significant. […]
(In general: An ELISA detects its analyte on a solid surface through an enzyme-linked reagent.)

For the molecule `C=C1CC[C@H]2C(=C)CC[C@H]3C(=C)C(=O)O[C@@H]3[C@@H]12` [PC, Dehydrocostolactone], the “β-hexosaminidase (% vs NS)” value in the test on RBL-2H3 cells (RBL-2H3, anti-DNP IgE / DNP-HSA) is on record as 244.8%. The “protection (% vs NC)” value in the test with RBL-2H3 cells (reduction in degranulation) was 80.8%. In the test with TNFα, the “TNFα (% vs NS)” value stood at 183.4%. The “TNFα” value in the test with TNFα (RBL-2H3 supernatant) came to 200.3 pg/mL. Besides, the “protezione (% vs NC)” value in the test with TNFα (reduction in TNFα release) stood at 19.5%.
